Laboratory results published in patent US20180141913A1 (EISAI R & D MANAGEMENT CO., LTD., priority 2016, published 2018).

Tests used:
[1] = test system: MCF7-WT cells (MCF7 ER-alpha wildtype); assay: In vitro proliferation (viability) assay, MCF7-WT cells; assay type: cell-based; settings: Homo sapiens, MCF7; CellTiter-Glo, day 6 vs day 0; average ± standard deviation; free base and/or salt forms; read-out: MCF7 WT GI50
Method: (§1) MCF7 BUS cells (Coser, et al., (2003) PNAS 100(24): 13994-13999) were maintained in Dulbecco's Modified Eagle Medium supplemented with 10% FBS, 4 mM L-glutamine and 1× non-essential amino acids. Lenti-X 293T cells (Clontech, Cat #632180) were routinely cultured in Dulbecco's Modified Eagle Medium supplemented with 10% FBS.
(§2) The QuikChange II XL Site-Directed Mutagenesis Kit (Agilent Technologies, Cat #200523) was used to generate Y537S, Y537C, Y537N and D538G mutations within the ERα exon 8. Wild-type ESR1 cDNA (GeneCopoeia Inc., Cat# GC-A0322, accession no. NM 000125) was used as a template with the following mutagenesis primers (where the underlined nucleotides represent site mutations); Y537S: F-AAGAACGTGGTGCCCCTCTCTGACCTGCTGCTGGAGATG (SEQ ID NO: 1), R-CATCTCCAGCAGCAGGTCAGAGAGGGGCACCACGTTCTT (SEQ ID NO: 2); Y537N: F-AAGAACGTGGTGCCCCTCAATGACCTGCTGCTGGAGATG (SEQ ID NO: 3), R-CATCTCCAGCAGCAGGTCATTGAGGGGCACCACGTTCTT (SEQ ID NO: 4); Y537C: F-AAGAACGTGGTGCCCCTCTGTGACCTGCTGCTGGAGATG (SEQ ID NO: 5), R-CATCTCCAGCAGCAGGTCACAGAGGGGCACCACGTTCTT (SEQ ID NO: 6); D538G: F-AACGTGGTGCCCCTCTATGGCCTGCTGCTGGAGATGCTG (SEQ ID NO: 7), R-CAGCATCTCCAGCAGCAGGCCATAGAGGGGCACCACGTT (SEQ ID NO: 8). WT and mutant ESR1 cDNAs were cloned into the designation lentiviral vector pLenti6.3/V5-Dest (Invitrogen, Cat #V533-06). To make lentivirus, DNAs (WT and mutant ESR1) were co-transfected with packaging plasmids into Lenti-X 293T cells using TransIT (Mirus, Cat #MIR 2700). 48 h post-transfection, virus containing media was filtered and added to MCF7 cells in the presence of 8 µg/ml polybrene overnight. Two days following infection, cells were placed under selection with 10 µg/ml blasticidin for 2 weeks for stable expression.
(§3) MCF7-WT and -Y537S cells were seeded at 1500 cells/well in black-walled 96-well plates (assay plates, Costar, Cat #3904). In parallel, cells were also seeded in a separate 96-well plate (8 wells/cell line, control plate) for which a CTG (CellTiter-Glo® Luminescent Viability Assay, Promega, Cat #G7572) was measured the following day (day 0 reading). The day 0 reading was used for the GI50 calculation at the termination of the experiment. The day following seeding, compounds were added to assay plates. Briefly, a 1:4 serial dilution was prepared in DMSO at 200× final concentration for a total of 10 concentrations (9 dilutions containing compound and one is DMSO only). Serially diluted compounds were pipetted into medium to prepare a compound-medium mix at 10× final concentration. 10 μl of compound-medium mix was added to MCF7-WT and -Y537S cells at 3 wells/concentration (triplicate for each concentration). On day 3, media/compound was removed and replaced with fresh media/compound as described above. On day 6, CTG was measured and compared to day 0 readings from control plate to assess GI50.

[2] = test system: MCF7-Y537S cells (MCF7 ER-alpha Y537S mutant); assay: In vitro proliferation (viability) assay, MCF7-Y537S cells; assay type: cell-based; settings: Homo sapiens, MCF7; CellTiter-Glo, day 6 vs day 0; average ± standard deviation; free base and/or salt forms; read-out: MCF7 Y537S GI50
Method: as §1, §2, §3

| Compound | GI50 [1] [nM] | GI50 [2] [nM] |
| --- | --- | --- |
| CC/C(=C(/c1ccc(OCCNC/C=C/C(=O)NC)cc1)c1ccc2[nH]nc(F)c2c1)c1ccc(F)cc1Cl [Compound 48, (E)-4-((2-(4-((E)-2-(2-chloro-4-fluorophenyl)-1-(3-fluoro-1H-indazol-5-yl)but-1-en-1-yl)phenoxy)ethyl)amino)-N-methylbut-2-enamide] | 0.8 ± 0.14 | 8.25 ± 2.6 |
| CC/C(=C(/c1ccc(OCCNC/C=C/C(=O)NC)nc1)c1ccc2[nH]nc(C)c2c1)c1ccccc1 [Compound 49, (E)-N-methyl-4-((2-((5-((Z)-1-(3-methyl-1H-indazol-5-yl)-2-phenylbut-1-en-1-yl)pyridin-2-yl)oxy)ethyl)amino)but-2-enamide] | 173 ± 51.7 | 2420 |
| O=C(/C=C/CNCCOc1ccc(/C(=C(/CC(F)(F)F)c2ccccc2)c2ccc3[nH]nc(F)c3c2)cc1)N1CCCCC1 [Compound 52, (E)-1-(piperidin-1-yl)-4-((2-(4-((E)-4,4,4-trifluoro-1-(3-fluoro-1H-indazol-5-yl)-2-phenylbut-1-en-1-yl)phenoxy)ethyl)amino)but-2-en-1-one] | 1.2 | 9.3 |
| O=C1NCCC1CCNCCOc1ccc(/C(=C(/CC(F)(F)F)c2ccccc2)c2ccc3[nH]nc(F)c3c2)cn1 (stereo not shown) [Compound 53, (Z)-3-(2-((2-((5-(4,4,4-trifluoro-1-(3-fluoro-1H-indazol-5-yl)-2-phenylbut-1-en-1-yl)pyridin-2-yl)oxy)ethyl)amino)ethyl)pyrrolidin-2-one] | 0.3 | 1.8 |
| CNC(=O)/C=C/CNCCOc1ccc(/C(=C(/CC(F)(F)F)c2ccccc2)c2ccc3[nH]nc(F)c3c2)nn1 [Compound 54, (E)-N-methyl-4-((2-((6-((Z)-4,4,4-trifluoro-1-(3-fluoro-1H-indazol-5-yl)-2-phenylbut-1-en-1-yl)pyridazin-3-yl)oxy)ethyl)amino)but-2-enamide] | 892 ± 528 | 7690 |
| CNC(=O)/C=C/CNCCOc1ccc(/C(=C(/CC(F)(F)F)c2ccc(F)cc2Cl)c2ccc3[nH]ncc3c2)cn1 [Compound 58, (E)-4-((2-((5-((Z)-2-(2-chloro-4-fluorophenyl)-4,4,4-trifluoro-4,4,4-trifluoro-1-(1H-indazol-5-yl)but-1-en-1-yl)pyridin-2-yl)oxy)ethyl)amino)-N-methylbut-2-enamide] | 0.33 ± 0.12 | 3.97 ± 2.25 |
| CNC(=O)/C=C/CNCCOc1ccc(/C(=C(\c2ccccc2)C2CC2)c2ccc3[nH]nc(F)c3c2)cc1 [Compound 63, (E)-4-((2-(4-((E)-2-cyclopropyl-1-(3-fluoro-1H-indazol-5-yl)-2-phenylvinyl)phenoxy)ethyl)amino)-N-methylbut-2-enamide] | 17.9 ± 8.66 | 117 ± 11.6 |

Results, then the compound that gave them:

| GI50 [1] [nM] | GI50 [2] [nM] | Compound |
| --- | --- | --- |
| 4 ± 1.16 | 98.5 ± 81.5 | CC/C(=C(/c1ccc(OCCNC/C=C/C(=O)NC)cc1)c1ccc2[nH]ncc2c1)c1ccccc1 [Compound 50, (E)-4-((2-(4-((E)-1-(1H-indazol-5-yl)-2-phenylbut-1-en-1-yl)phenoxy)ethyl)amino)-N-methylbut-2-enamide] |
| 9.82 ± 1.92 | 190 ± 50.1 | CC/C(=C(/c1ccc(OCCNCCCC(=O)NC)cc1)c1ccc2[nH]ncc2c1)c1ccccc1 [Compound 51, (E)-4-((2-(4-(1-(1H-indazol-5-yl)-2-phenylbut-1-en-1-yl)phenoxy)ethyl)amino)-N-methylbutanamide] |
| 3.31 ± 0.43 | 14.5 ± 4.32 | CC/C(=C(/c1ccc(OCCNCCCC(=O)NC)nc1)c1ccc2[nH]ncc2c1)c1ccccc1 [Compound 62, (Z)-4-((2-((5-(1-(1H-indazol-5-yl)-2-phenylbut-1-en-1-yl)pyridin-2-yl)oxy)ethyl)amino)-N-methylbutanamide] |
| 153 ± 27.4 | 673 ± 167 | CNC(=O)/C=C/CNCCOc1ccc(/C(=C(/CCO)c2ccccc2)c2ccc3[nH]nc(F)c3c2)cc1 [Compound 64, (E)-4-((2-(4-((E)-1-(3-fluoro-1H-indazol-5-yl)-4-hydroxy-2-phenylbut-1-en-1-yl)phenoxy)ethyl)amino)-N-methylbut-2-enamide] |
